Measurements from ChEMBL document CHEMBL4382198, “Discovery of Risdiplam, a Selective Survival of Motor Neuron-2 ( SMN2) Gene Splicing Modifier for the Treatment of Spinal Muscular Atrophy (SMA)” (J Med Chem, 2018).
Blank lines part the entries; values can stand above or below the compound they belong to.

Assays:
in vivo = settings: rat
[1] = Effect on human FOXM1b/c mRNA splicing expressed in human SMA-derived fibroblasts by RT-qPCR analysis; assay type: ADME
[2] = Chronic toxicity in retina of po dosed cynomolgus monkey assessed as effect on photo-receptor layers after 39 weeks by histological analysis; assay type: organism-based, Macaca fascicularis; settings: in vivo, 6552 h
[3] = Chronic toxicity in retina of po dosed cynomolgus monkey assessed as formation of microcystic spaces in the inner retinal layers after 39 weeks by OCT analysis; assay type: organism-based, Macaca fascicularis; settings: in vivo, 6552 h
[4] = Stabilization of human APLP2 mRNA splicing expressed in human SMA-derived fibroblasts at 131 to 655 nM by RT-qPCR analysis; assay type: ADME; settings: 0.655 µM
[5] = Efflux ratio of permeability in human SMA-derived fibroblasts; assay type: ADME, cell-based, Fibroblast; settings: not told
[6] = Effect on FOXM1b/c mRNA splicing in cynomolgus monkey induced pluripotent stem cells by RT-qPCR analysis; assay type: ADME, Macaca fascicularis
[7] = Oral bioavailability in cynomolgus monkey at 1.3 mg/kg administered as single dose; assay type: ADME, organism-based, Macaca fascicularis; settings: in vivo
[8] = Oral bioavailability in rat at 5 mg/kg administered as single dose; assay type: ADME, organism-based; settings: in vivo
[9] = Tmax in human; assay type: ADME
[10] = Chronic toxicity in retina of po dosed cynomolgus monkey assessed as effect on outer nuclear layers after 39 weeks by histological analysis; assay type: organism-based, Macaca fascicularis; settings: in vivo, 6552 h
[11] = Chronic toxicity in retina of po dosed cynomolgus monkey assessed as formation of scotopic depressed B-waves after 39 weeks by ERG analysis; assay type: organism-based, Macaca fascicularis; settings: in vivo, 6552 h
Mus musculus [12] = assay: In-vivo stabilization of SMN2 mRNA in SMA neonatal delta7 mouse model assessed as increase in free SMN protein levels by measuring free AUC (0 to 42 hrs) at 1 mg/kg, ip dosed once daily starting from postnatal day 3 to postnatal day 9; assay type: functional
[13] = Effect on human FOXM1a mRNA splicing expressed in human SMA-derived fibroblasts by RT-qPCR analysis; assay type: ADME
[14] = Cardiotoxicity in cynomolgus monkey assessed as prolongation of QTc interval time; assay type: toxicity, Macaca fascicularis
NIH3T3 = assay: Phototoxicity in mouse 3T3 cells assessed as decrease in cell viability in presence of UV light by neutral red uptake assay; assay type: cell-based; settings: NIH3T3, light or radiation study
[15] = Stabilization of human STRN3 mRNA splicing expressed in human SMA-derived fibroblasts at 131 to 655 nM by RT-qPCR analysis; assay type: ADME; settings: 0.655 µM
[16] = Half life in cynomolgus monkey at 1.3 mg/kg, po administered as single dose; assay type: ADME, organism-based, Macaca fascicularis; settings: in vivo
[17] = Lipophilicity, log D of the compound at pH 7.4; assay type: physicochemical; settings: buffer
Mus musculus [18] = assay: In-vivo stabilization of SMN2 mRNA in SMA neonatal delta7 mouse model assessed as increase in free SMN protein levels by measuring free AUC (0 to 42 hrs) at 3 mg/kg, ip dosed once daily starting from postnatal day 3 to postnatal day 9; assay type: functional
[19] = target: Survival motor neuron protein (Homo sapiens) (UniProt Q16637); assay: Activation of SMN protein in human SMA-derived fibroblasts after 48 hrs by HTRF assay
[20] = Chronic toxicity in retina of po dosed cynomolgus monkey assessed as multifocal peripheral retina degeneration after 39 weeks by OCT analysis; assay type: organism-based, Macaca fascicularis; settings: in vivo, 6552 h
[21] = Drug metabolism in rat plasma assessed as dealkylated 2-(4-ethyl-6-methylpyrazolo[1,5-a]pyrazin-2-yl)-9-methyl-7-(piperidin-4-yl)-4H-pyrido[1,2-a]pyrimidin-4-one metabolite formation; assay type: ADME, cell-free
[22] = Chronic toxicity in retina of po dosed cynomolgus monkey assessed as excess vacuolation of inner nuclear layer after 39 weeks by histological analysis; assay type: organism-based, Macaca fascicularis; settings: in vivo, 6552 h
[23] = Stabilization of human MADD mRNA splicing expressed in human SMA-derived fibroblasts at 131 to 655 nM by RT-qPCR analysis; assay type: ADME; settings: 0.655 µM
[24] = Terminal half life in rat; assay type: ADME; settings: in vivo, read-out: beta t1/2 (converted)
[25] = Stabilization of human […] mRNA splicing expressed in human SMA-derived fibroblasts at 131 to 655 nM by RT-qPCR analysis; assay type: ADME; settings: 0.655 µM
[26] = Drug metabolism in human plasma assessed as dealkylated 2-(4-ethyl-6-methylpyrazolo[1,5-a]pyrazin-2-yl)-9-methyl-7-(piperidin-4-yl)-4H-pyrido[1,2-a]pyrimidin-4-one metabolite formation; assay type: ADME, cell-free
[27] = Drug metabolism in mouse plasma assessed as dealkylated 2-(4-ethyl-6-methylpyrazolo[1,5-a]pyrazin-2-yl)-9-methyl-7-(piperidin-4-yl)-4H-pyrido[1,2-a]pyrimidin-4-one metabolite formation; assay type: ADME, cell-free
[28] = target: Voltage-gated inwardly rectifying potassium channel KCNH2 (Homo sapiens, UniProt Q12809); assay: (§1) Inhibition of human ERG at 37 degC
hERG (KCNH2) = hERG (KCNH2) (Homo sapiens, UniProt Q12809); assay: as §1; settings: human
[29] = Drug metabolism in dog plasma assessed as dealkylated 2-(4-ethyl-6-methylpyrazolo[1,5-a]pyrazin-2-yl)-9-methyl-7-(piperidin-4-yl)-4H-pyrido[1,2-a]pyrimidin-4-one metabolite formation; assay type: ADME, cell-free, Canis lupus familiaris
[30] = Volume of distribution at steady state in rat at 2 mg/kg, iv administered as single dose; assay type: ADME, organism-based; settings: in vivo, read-out: Vdss
[31] = Effect on FOXM1b/c mRNA splicing in human induced pluripotent stem cells by RT-qPCR analysis; assay type: ADME
[32] = Chronic toxicity in retina of po dosed cynomolgus monkey assessed as RPE hypertrophy 39 weeks by histological analysis; assay type: organism-based, Macaca fascicularis; settings: in vivo, 6552 h
[33] = Terminal half life in human; assay type: ADME; settings: read-out: beta t1/2 (converted)
[34] = Volume of distribution at steady state in cynomolgus monkey; assay type: ADME, Macaca fascicularis; settings: in vivo, read-out: Vdss
[35] = Drug metabolism in cynomolgus monkey plasma assessed as dealkylated 2-(4-ethyl-6-methylpyrazolo[1,5-a]pyrazin-2-yl)-9-methyl-7-(piperidin-4-yl)-4H-pyrido[1,2-a]pyrimidin-4-one metabolite formation; assay type: ADME, cell-free, Macaca fascicularis
[36] = Clearance in rat at 2 mg/kg, iv administered as single dose; assay type: ADME, organism-based; settings: in vivo
Homo sapiens [37] = species on record: Homo sapiens; assay: Modulation of human SMN2 mRNAsplicing expressed in HEK293H cells by qRT-PCR analysis; assay type: cell-based
[38] = Drug metabolism in rabbit plasma assessed as dealkylated 2-(4-ethyl-6-methylpyrazolo[1,5-a]pyrazin-2-yl)-9-methyl-7-(piperidin-4-yl)-4H-pyrido[1,2-a]pyrimidin-4-one metabolite formation; assay type: ADME, cell-free, Oryctolagus cuniculus
[39] = Dark toxicity in mouse 3T3 cells assessed as decrease in cell viability by neutral red uptake assay; assay type: cell-based, NIH3T3
[40] = Drug metabolism in pig plasma assessed as dealkylated 2-(4-ethyl-6-methylpyrazolo[1,5-a]pyrazin-2-yl)-9-methyl-7-(piperidin-4-yl)-4H-pyrido[1,2-a]pyrimidin-4-one metabolite formation; assay type: ADME, cell-free, Sus scrofa
[41] = Terminal half life in cynomolgus monkey; assay type: ADME, Macaca fascicularis; settings: in vivo, read-out: beta t1/2 (converted)
[42] = Half life in rat at 5 mg/kg, po administered as single dose; assay type: ADME, organism-based; settings: in vivo
Homo sapiens [43] = species on record: Homo sapiens; assay: Activation of human full length SMN2 mRNA expressed in human SMA-derived fibroblasts by RT-qPCR analysis
[44] = Drug metabolism in po dosed mouse plasma assessed as dealkylated 2-(4-ethyl-6-methylpyrazolo[1,5-a]pyrazin-2-yl)-9-methyl-7-(piperidin-4-yl)-4H-pyrido[1,2-a]pyrimidin-4-one metabolite formation; assay type: ADME, organism-based; settings: in vivo
[45] = Drug metabolism in po dosed cynomolgus monkey plasma assessed as dealkylated 2-(4-ethyl-6-methylpyrazolo[1,5-a]pyrazin-2-yl)-9-methyl-7-(piperidin-4-yl)-4H-pyrido[1,2-a]pyrimidin-4-one metabolite formation; assay type: ADME, organism-based, Macaca fascicularis; settings: in vivo
[46] = Efflux ratio of permeability in mouse 3T3 cells; assay type: ADME, cell-based, NIH3T3
[47] = Drug metabolism in po dosed rat plasma assessed as dealkylated 2-(4-ethyl-6-methylpyrazolo[1,5-a]pyrazin-2-yl)-9-methyl-7-(piperidin-4-yl)-4H-pyrido[1,2-a]pyrimidin-4-one metabolite formation; assay type: ADME, organism-based; settings: in vivo

Chain of Survival motor neuron protein (Homo sapiens) (Q16637 whole entry): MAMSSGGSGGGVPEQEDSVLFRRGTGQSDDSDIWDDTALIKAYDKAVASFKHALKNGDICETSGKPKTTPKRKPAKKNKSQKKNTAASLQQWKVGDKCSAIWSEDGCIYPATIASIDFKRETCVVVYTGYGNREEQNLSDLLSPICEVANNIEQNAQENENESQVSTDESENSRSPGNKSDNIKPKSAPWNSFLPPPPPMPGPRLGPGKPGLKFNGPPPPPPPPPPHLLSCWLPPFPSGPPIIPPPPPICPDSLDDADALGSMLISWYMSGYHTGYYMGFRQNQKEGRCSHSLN
Chain of Voltage-gated inwardly rectifying potassium channel KCNH2 (Q12809 whole entry): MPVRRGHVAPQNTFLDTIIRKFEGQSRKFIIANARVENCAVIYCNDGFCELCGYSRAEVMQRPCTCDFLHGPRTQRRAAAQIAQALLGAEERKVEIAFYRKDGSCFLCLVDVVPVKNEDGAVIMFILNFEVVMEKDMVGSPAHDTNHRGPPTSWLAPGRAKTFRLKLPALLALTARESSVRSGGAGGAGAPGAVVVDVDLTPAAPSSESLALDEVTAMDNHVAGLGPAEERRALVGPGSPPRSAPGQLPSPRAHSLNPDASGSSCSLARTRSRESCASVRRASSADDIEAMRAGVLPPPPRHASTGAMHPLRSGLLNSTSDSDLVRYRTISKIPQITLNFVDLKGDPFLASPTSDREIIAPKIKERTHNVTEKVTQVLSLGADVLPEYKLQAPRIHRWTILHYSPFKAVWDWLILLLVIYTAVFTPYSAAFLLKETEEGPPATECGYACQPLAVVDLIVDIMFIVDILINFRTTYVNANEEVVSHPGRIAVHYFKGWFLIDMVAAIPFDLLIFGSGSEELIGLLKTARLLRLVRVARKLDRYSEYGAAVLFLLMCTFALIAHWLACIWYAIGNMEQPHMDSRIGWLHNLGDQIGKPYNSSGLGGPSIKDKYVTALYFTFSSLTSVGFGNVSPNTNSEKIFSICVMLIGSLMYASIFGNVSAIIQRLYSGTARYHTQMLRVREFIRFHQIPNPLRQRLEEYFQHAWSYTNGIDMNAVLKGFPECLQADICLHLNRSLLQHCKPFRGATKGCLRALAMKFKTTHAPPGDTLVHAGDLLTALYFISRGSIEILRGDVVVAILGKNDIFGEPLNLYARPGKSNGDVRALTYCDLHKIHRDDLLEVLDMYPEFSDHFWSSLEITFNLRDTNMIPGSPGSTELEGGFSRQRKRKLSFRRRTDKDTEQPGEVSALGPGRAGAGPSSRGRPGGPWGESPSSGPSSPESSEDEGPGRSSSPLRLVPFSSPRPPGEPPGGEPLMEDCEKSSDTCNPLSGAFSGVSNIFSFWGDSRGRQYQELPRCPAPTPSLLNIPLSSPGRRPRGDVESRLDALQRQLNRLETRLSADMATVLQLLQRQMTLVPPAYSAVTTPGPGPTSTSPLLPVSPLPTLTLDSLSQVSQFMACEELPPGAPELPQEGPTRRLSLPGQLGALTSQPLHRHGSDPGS
Chain of hERG (KCNH2) (Q12809 whole entry): as above

pKa (physchem): 8.6
Vd (in vivo): 15 L/kg
SMILES: Cc1cn2cc(-c3cc(=O)n4cc(N5CCN6CCC[C@H]6C5)ccc4n3)cc(C)c2n1

efflux ratio [5]: 2
IC50 ([6]; Macaca fascicularis): 900 nM
bioavailability [7]: 52%
bioavailability [8]: 100%
Tmax [9]: 5 to 8 h
pKa (physchem): 10.9
half-life [16]: 42 h
logD [17]: 2.3
Drug metabolism [21]: Metabolite_Detected
half-life [24]: 19 h
Drug metabolism [26]: Metabolite_Detected
Drug metabolism [27]: Metabolite_Detected
Drug metabolism [29]: Metabolite_Detected
Vd (in vivo): 20 to 30 L/kg
Vd [30]: 29 L/kg
IC50 ([31]; Homo sapiens): 1850 nM
half-life [33]: 120 h
Vd [34]: 20 to 30 L/kg
Drug metabolism [35]: Metabolite_Detected
clearance [36]: 25 mL/min/kg
Drug metabolism [38]: Metabolite_Detected
Drug metabolism [40]: Metabolite_Detected
half-life [41]: 42 h
half-life [42]: 19 h
SMILES: CCc1nc(C)cn2nc(-c3cc(=O)n4cc(C5CCN(C)CC5)cc(C)c4n3)cc12
EC50 [1]: 352 nM
Activity [2]: Toxic
Activity [3]: Toxic
Activity [4]: Non-Toxic
Activity [10]: Toxic
Activity [11]: Toxic
fAUC (Mus musculus [12]): 73 ng·h/mL
EC50 [13]: 247 nM
Time [14]: 10 ms
IC50 (NIH3T3): 330 nM
Activity [15]: Non-Toxic
fAUC (Mus musculus [18]): 118 ng·h/mL
EC1.5 [19]: 87 nM
Activity [20]: Toxic
Activity [22]: Toxic
Activity [23]: Non-Toxic
Activity [25]: Non-Toxic
IC50 [28]: 1800 nM
IC20 (hERG (KCNH2)): 500 nM
Activity [32]: Toxic
EC1.5 (Homo sapiens [37]): 23 nM
IC50 [39]: > 10000 nM

pKa (physchem): 7.5
Vd (in vivo): 4 L/kg
SMILES: Cc1nc2c(F)cc(-c3cc(=O)n4cc(N5CCN6CCC[C@H]6C5)ccc4n3)cc2o1

EC1.5 (Homo sapiens [43]): 3 nM
SMILES: Cc1cn2nc(-c3cc(=O)n4cc(N5CCN6CCC[C@H]6C5)ccc4n3)ccc2n1
EC1.5 [19]: 20 nM

pKa (physchem): 8.4
Vd (in vivo): 15 L/kg
SMILES: CCc1nc(C)cn2nc(-c3cc(=O)n4cc(N5CCN6CCC[C@]6(C)C5)ccc4n3)cc12

pKa (physchem): 7.6
Vd (in vivo): 7 L/kg
SMILES: CCc1nc(C)cn2nc(-c3cc(=O)n4cc(N5CCN6CCC[C@@H]6C5)ccc4n3)cc12

EC1.5 (Homo sapiens [43]): 2 nM
SMILES: Cc1cn2nc(-c3cc(=O)n4cc(N5CCN6CCC[C@H]6C5)ccc4n3)cc(C)c2n1
EC1.5 [19]: 22 nM

EC1.5 (Homo sapiens [43]): 40 nM
SMILES: CCc1nc(C)cn2nc(-c3cc(=O)n4cc(N5CCN6CCC[C@H]6C5)ccc4n3)cc12
EC1.5 [19]: 163 nM

pKa (physchem): 7.3
Vd (in vivo): 7 L/kg
SMILES: Cc1cn2cc(-c3cc(=O)n4cc(N5CCN6CCC[C@H]6C5)ccc4n3)cc(C(F)(F)F)c2n1

The remaining lines, values behind:

SMILES: Cc1cn2nc(-c3cc(=O)n4cc(N5CCN(O)C6(CC6)C5)ccc4n3)cc(C)c2n1
Activity ([6]; cynomolgus monkey): Non-Toxic
Activity ([31]; human): Non-Toxic

SMILES: Cc1cn2cc(-c3cc(=O)n4cc(N5CCC(N6CCCC6)CC5)ccc4n3)cc(C(F)(F)F)c2n1
pKa (physchem): 9.3
Vd (in vivo): 18 L/kg

SMILES: CCc1nc(C)cn2nc(-c3cc(=O)n4cc(C5CCN(CC)CC5)cc(C)c4n3)cc12
pKa (physchem): 9.1
Vd (in vivo): 20 L/kg

SMILES: CCc1nc(C)cn2cc(-c3cc(=O)n4cc(N5CCC(N6CCC6)CC5)cc(C)c4n3)cc12
pKa (physchem): 8.9
Vd (in vivo): 20 L/kg

SMILES: Cc1cn2cc(-c3cc(=O)n4cc(N5CCN6CCC[C@@]6(C)C5)ccc4n3)cc(C(F)(F)F)c2n1
pKa (physchem): 8.4
Vd (in vivo): 9 L/kg

SMILES: CCc1nc(C)cn2nc(C3=CC(=O)N4C=C(C5CCNCC5)C=C(C)C4N3)cc12 (stereo unspecified)
EC50 [1]: 23 nM
efflux ratio [5]: 18.7
Drug metabolism [44]: <= 9 %ID
EC1.5 (Homo sapiens [43]): < 2 nM
Drug metabolism [45]: <= 9 %ID
efflux ratio [46]: 20
Drug metabolism [47]: <= 9 %ID

SMILES: Cc1cn2cc(-c3cc(=O)n4cc(N5CCN(C)CC5)ccc4n3)cc(F)c2n1
pKa (physchem): 7.2
Vd (in vivo): 5 L/kg
